In brackets after ≈: the same amount, converted by molar mass.
Experiments:
Format in all cases: functional
SK-BR-3 = assay: Cytotoxicity against estrogen receptor deficient human SKBR3 cells overexpressing human epidermal growth factor receptor 2 after 72 hrs by SRB assay; settings: SK-BR-3, 72 h, read-out: ED50 (the source's name)
ZR-75-1 [1] = assay: Cytotoxicity against human ZR-75-1 cells expressing estrogen receptor and HER2 after 72 hrs by SRB assay; settings: ZR-75-1, 72 h, read-out: ED50 (the source's name)
DU-145 = assay: Cytotoxicity against human DU145 cells after 72 hrs by SRB assay; settings: DU-145, 72 h, read-out: ED50 (the source's name)
KB = assay: Cytotoxicity against human KB cells after 72 hrs by SRB assay; settings: read-out: ED50 (the source's name)
MCF7 = assay: Cytotoxicity against human MCF7 cells expressing estrogen receptor after 72 hrs by SRB assay; settings: MCF7, 72 h, read-out: ED50 (the source's name)
ZR-75-1 [2] = assay: Selectivity ratio of ED50 for human MCF7 cells expressing estrogen receptor to ED50 for human ZR-75-1 cells expressing estrogen receptor and HER2
MDA-MB-231 = assay: Cytotoxicity against estrogen receptor deficient human MDA-MB-231 cells after 72 hrs by SRB assay; settings: MDA-MB-231, 72 h, read-out: ED50 (the source's name)
[3] = Cytotoxicity against vincristine-resistant human KBVIN cells after 72 hrs by SRB assay; settings: read-out: ED50 (the source's name)
A549 = assay: Cytotoxicity against human A549 cells after 72 hrs by SRB assay; settings: A549, 72 h, read-out: ED50 (the source's name)
ZR-75-1 [4] = assay: Selectivity ratio of ED50 for estrogen receptor deficient human SKBR3 cells overexpressing HER2 to ED50 for human ZR-75-1 cells expressing estrogen receptor and HER2

Compound	EC50 (SK-BR-3) [µg/mL]	EC50 (ZR-75-1 [1]) [µg/mL]	EC50 (DU-145) [µg/mL]	EC50 (KB) [µg/mL]	EC50 (MCF7) [µg/mL]	Ratio ED50 (ZR-75-1 [2])	EC50 (MDA-MB-231) [µg/mL]	EC50 [3] [µg/mL]	EC50 (A549) [µg/mL]	Ratio ED50 (ZR-75-1 [4])
CCc1cccc2c1ccc1c3occ(C)c3c(=O)oc21	0.1 (≈ 0.359 µM)	0.1 (≈ 0.359 µM)	15.9 (≈ 57.1 µM)	13.1 (≈ 47.1 µM)	0.2 (≈ 0.719 µM)	2	> 10	13.2 (≈ 47.4 µM)	10.6 (≈ 38.1 µM)	–
Cc1coc2c1c(=O)oc1c3ccccc3ccc21	1 (≈ 4 µM)	–	–	–	4 (≈ 16 µM)	–	–	–	–	–
CCOc1cccc2c(O)c(-c3occ(C)c3C(=O)O)ccc12	6 (≈ 19.2 µM)	–	–	–	7.5 (≈ 24 µM)	–	–	–	–	–
Cc1cccc2c(OC(=O)c3ccoc3)cccc12	> 20	–	–	–	> 20	–	–	–	–	–
Cc1coc2c1c(=O)oc1cc(OC(C)C)ccc12	10.8 (≈ 41.8 µM)	–	–	–	12 (≈ 46.5 µM)	–	–	–	–	–
C#CCOc1cc(=O)oc2c1ccc1ccccc12	16 (≈ 63.9 µM)	–	–	–	20 (≈ 79.9 µM)	–	–	–	–	–
COC(=O)c1c(C)coc1-c1ccc2ccccc2c1OC	6.5 (≈ 21.9 µM)	–	–	–	8.5 (≈ 28.7 µM)	–	–	–	–	–
COc1cccc2c(O)c(-c3occ(C)c3C(=O)O)ccc12	3.5 (≈ 11.7 µM)	0.6 (≈ 2.01 µM)	8.2 (≈ 27.5 µM)	9.7 (≈ 32.5 µM)	> 20	33	> 10	8.9 (≈ 29.8 µM)	10.1 (≈ 33.9 µM)	6
COc1c(-c2occ(C)c2C(=O)O)ccc2ccccc12	16.7 (≈ 59.2 µM)	–	–	–	18 (≈ 63.8 µM)	–	–	–	–	–
CCc1cccc2c(O)c(-c3occ(C)c3C(=O)O)ccc12	1 (≈ 3.37 µM)	0.3 (≈ 1.01 µM)	8.7 (≈ 29.4 µM)	9.1 (≈ 30.7 µM)	3.3 (≈ 11.1 µM)	10	> 10	7 (≈ 23.6 µM)	10.6 (≈ 35.8 µM)	3
CCc1cccc2c(OC)c(-c3occ(C)c3C(=O)O)ccc12	8.5 (≈ 27.4 µM)	–	–	–	4.3 (≈ 13.9 µM)	–	–	–	–	–
CCc1cccc2c(O)c(-c3occ(C)c3CO)ccc12	12.8 (≈ 45.3 µM)	–	–	–	12 (≈ 42.5 µM)	–	–	–	–	–
CCc1cccc2c(O)c(-c3oc(C)c(C)c3C(=O)O)ccc12	10.4 (≈ 33.5 µM)	–	–	–	8.5 (≈ 27.4 µM)	–	–	–	–	–
CCc1coc(-c2ccc3c(CC)cccc3c2O)c1C(=O)O	5.4 (≈ 17.4 µM)	–	–	–	5.1 (≈ 16.4 µM)	–	–	–	–	–
Cc1coc(-c2ccc3ccccc3c2O)c1CO	9.5 (≈ 37.4 µM)	–	–	–	7 (≈ 27.5 µM)	–	–	–	–	–
Cc1coc(-c2ccc3ccccc3c2O)c1C(=O)O	7 (≈ 26.1 µM)	–	–	–	6 (≈ 22.4 µM)	–	–	–	–	–
CCc1cccc2c(OC)c(-c3occ(C)c3C(=O)OC)ccc12	1.2 (≈ 3.7 µM)	1.3 (≈ 4.01 µM)	2.2 (≈ 6.78 µM)	1.7 (≈ 5.24 µM)	2.5 (≈ 7.71 µM)	–	2.3 (≈ 7.09 µM)	1.3 (≈ 4.01 µM)	1.5 (≈ 4.62 µM)	–
CC/C(=C(\c1ccccc1)c1ccc(OCCN(C)C)cc1)c1ccccc1 [TAMOXIFEN]	5 (≈ 13.5 µM)	–	–	–	5 (≈ 13.5 µM)	–	–	–	–	–
